Patent US10172961B2 (priority 2014, dated 2019)

What was measured:
wild type MV G954 = settings: read-out: IC50, inhibition of MV entry (plaque reduction); wt MV G954, Vero-SLAM cells
Experimental: Vero-SLAM cell monolayers were infected with wild type MV G954 in the presence MV HRC peptides at the indicated peptide concentrations. Viral entry was assessed by plaque reduction assay. […] Each point represents the mean (±standard error) of four experiments. […] Vero-SLAM cell monolayers were infected with wild type MV-IC323-EGFP. After 90 minutes, medium with the indicated peptide concentrations was added. Viral spread was assessed by using a fluorescent readout of the EGFP after 72 hours. […] Each point represents the mean (±standard deviation) of a representative experiment.
Vero-SLAM monolayer cells were incubated with 40-50 PFU of wild type MV G954 in the presence of various concentrations of peptides. After 90 minutes, 2× minimal essential medium containing 10% FBS was mixed with 1% avicell and added to the dishes. The plates were then incubated at 37° C. for 72 h. After removing the medium overlay, the cells were immunostained for plaque detection. The number of plaques in the control (no peptide) and experimental wells were counted under a dissecting stereoscope.
The inhibitory activities of MV HRC 1, MV HRC 2, MV HRC 3 and MV HRC 4 (FIG. 1) against wt MV G954 were assessed in plaque reduction assays (FIG. 2A).

MV-IC323-EGFP = settings: for IC50: 72 h
[1] = rat, in vivo
[2] = molecular target: HPIV3 envelope glycoproteins (Human parainfluenza 3 virus, UniProt P06828); format: cell-based, Human parainfluenza virus type 3; settings: fusion assay with HPIV3 envelope glycoproteins; for IC50: read-out: IC50 nM, in vitro efficacy; for IC90: read-out: IC90 nM, in vitro efficacy
Chain of HPIV3 envelope glycoproteins (P06828 110-539 limits assumed): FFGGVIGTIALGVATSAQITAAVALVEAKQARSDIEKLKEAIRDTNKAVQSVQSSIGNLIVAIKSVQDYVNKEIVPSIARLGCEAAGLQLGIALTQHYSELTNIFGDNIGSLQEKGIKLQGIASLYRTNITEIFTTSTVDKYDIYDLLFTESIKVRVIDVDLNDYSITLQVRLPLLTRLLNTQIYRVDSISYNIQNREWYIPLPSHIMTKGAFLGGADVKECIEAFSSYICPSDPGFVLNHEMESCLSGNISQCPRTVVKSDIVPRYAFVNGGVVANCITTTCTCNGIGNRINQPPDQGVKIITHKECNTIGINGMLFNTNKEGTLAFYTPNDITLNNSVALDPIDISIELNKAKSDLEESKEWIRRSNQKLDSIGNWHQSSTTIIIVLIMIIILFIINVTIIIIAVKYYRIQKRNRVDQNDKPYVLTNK
Chain of HPIV3 envelope glycoproteins (P06828 19-109 partner limits assumed): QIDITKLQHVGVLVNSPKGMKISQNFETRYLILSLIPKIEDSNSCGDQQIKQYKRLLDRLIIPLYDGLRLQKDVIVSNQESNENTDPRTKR

[3] = in vivo; cited from earlier work

In the case of `CC[C@H](C)[C@H](NC(=O)[C@H](C)NC(=O)[C@H](CC(N)=O)NC(=O)CNC(=O)[C@H](CC(C)C)NC(=O)[C@H](CC(N)=O)NC(=O)[C@@H](NC(=O)CNC(=O)[C@@H](NC(=O)[C@H](CC(=O)O)NC(=O)[C@H](CC(C)C)NC(=O)[C@H](CCCNC(=N)N)NC(=O)[C@H](CCC(=O)O)NC(=O)[C@H](CC(C)C)NC(=O)[C@H](CO)NC(=O)[C@@H](NC(=O)[C@@H]1CCCN1C(=O)[C@@H]1CCCN1C(C)=O)[C@@H](C)CC)C(C)C)[C@@H](C)O)C(=O)N[C@@H](C)C(=O)N[C@@H](CCCCN)C(=O)N[C@@H](CC(C)C)C(=O)N[C@@H](CCC(=O)O)C(=O)N[C@@H](CC(=O)O)C(=O)N[C@@H](C)C(=O)N[C@@H](CCCCN)C(=O)N[C@@H](CCC(=O)O)C(=O)N[C@@H](CC(C)C)C(=O)N[C@@H](CC(C)C)C(=O)N[C@@H](CCC(=O)O)C(=O)N[C@@H](CO)C(=O)N[C@@H](CO)C(=O)N[C@@H](CC(=O)O)C(=O)N[C@@H](CCC(N)=O)C(=O)N[C@H](C(=O)N[C@@H](CC(C)C)C(=O)N[C@@H](CCCNC(=N)N)C(=O)NCC(=O)N[C@@H](CO)C(=O)NCC(=O)N[C@@H](CO)C(=O)NCC(=O)N[C@@H](CSCC(N)=O)C(N)=O)[C@@H](C)CC` [MV HRC1], the IC50 (wild type MV G954) is reported as roughly 7000 nM and the “reduction of viral infection (fluorescence level)” value (MV-IC323-EGFP) is reported as “neither MV HRC 1 nor MV HRC 3 reduced viral infection”.
For `CC[C@H](C)[C@H](NC(=O)[C@H](C)NC(=O)[C@H](CC(N)=O)NC(=O)CNC(=O)[C@H](CC(C)C)NC(=O)[C@H](CC(N)=O)NC(=O)[C@@H](NC(=O)CNC(=O)[C@@H](NC(=O)[C@H](CC(=O)O)NC(=O)[C@H](CC(C)C)NC(=O)[C@H](CCCNC(=N)N)NC(=O)[C@H](CCC(=O)O)NC(=O)[C@H](CC(C)C)NC(=O)[C@H](CO)NC(=O)[C@@H](NC(=O)[C@@H]1CCCN1C(=O)[C@@H]1CCCN1C(C)=O)[C@@H](C)CC)C(C)C)[C@@H](C)O)C(=O)N[C@@H](C)C(=O)N[C@@H](CCCCN)C(=O)N[C@@H](CC(C)C)C(=O)N[C@@H](CCC(=O)O)C(=O)N[C@@H](CC(=O)O)C(=O)N[C@@H](C)C(=O)N[C@@H](CCCCN)C(=O)N[C@@H](CCC(=O)O)C(=O)N[C@@H](CC(C)C)C(=O)N[C@@H](CC(C)C)C(=O)N[C@@H](CCC(=O)O)C(=O)N[C@@H](CO)C(=O)N[C@@H](CO)C(=O)N[C@@H](CC(=O)O)C(=O)N[C@@H](CCC(N)=O)C(=O)N[C@H](C(=O)N[C@@H](CC(C)C)C(=O)N[C@@H](CCCNC(=N)N)C(=O)NCC(=O)N[C@@H](CO)C(=O)NCC(=O)N[C@@H](CO)C(=O)NCC(=O)N[C@@H](CSC1=CC(=O)N(CCCC(=O)NCCOCCOCCOCCOCCC(=O)NCCNCCOC2CCC3(C)C(=CCC4C3CCC3(C)C(C(C)CCCC(C)C)CCC43)C2)C1=O)C(N)=O)[C@@H](C)CC` (some centres unmarked) [MV HRC2], the “presence in the brain / CNS localization” value [1] was “a small fraction of the administered peptides was present”, the “presence in the serum” value [1] was “a small fraction of the administered peptides was present” and the IC50 (MV-IC323-EGFP) was roughly 54 nM.
Work on `CC[C@H](C)[C@H](NC(=O)[C@H](C)NC(=O)[C@H](CC(N)=O)NC(=O)CNC(=O)[C@H](CC(C)C)NC(=O)[C@H](CC(N)=O)NC(=O)[C@@H](NC(=O)CNC(=O)[C@@H](NC(=O)[C@H](CC(=O)O)NC(=O)[C@H](CC(C)C)NC(=O)[C@H](CCCNC(=N)N)NC(=O)[C@H](CCC(=O)O)NC(=O)[C@H](CC(C)C)NC(=O)[C@H](CO)NC(=O)[C@@H](NC(=O)[C@@H]1CCCN1C(=O)[C@@H]1CCCN1C(C)=O)[C@@H](C)CC)C(C)C)[C@@H](C)O)C(=O)N[C@@H](C)C(=O)N[C@@H](CCCCN)C(=O)N[C@@H](CC(C)C)C(=O)N[C@@H](CCC(=O)O)C(=O)N[C@@H](CC(=O)O)C(=O)N[C@@H](C)C(=O)N[C@@H](CCCCN)C(=O)N[C@@H](CCC(=O)O)C(=O)N[C@@H](CC(C)C)C(=O)N[C@@H](CC(C)C)C(=O)N[C@@H](CCC(=O)O)C(=O)N[C@@H](CO)C(=O)N[C@@H](CO)C(=O)N[C@@H](CC(=O)O)C(=O)N[C@@H](CCC(N)=O)C(=O)N[C@H](C(=O)N[C@@H](CC(C)C)C(=O)N[C@@H](CCCNC(=N)N)C(=O)NCC(=O)N[C@@H](CO)C(=O)NCC(=O)N[C@@H](CO)C(=O)NCC(=O)N[C@@H](CSC1=CC(=O)N(CCCC(=O)NCCOCCOCCOCCOCCC(=O)NCCN(CCNC(=O)CCOCCOCCOCCOCCNC(=O)CCCN2C(=O)C=C(SC[C@H](NC(=O)CNC(=O)[C@H](CO)NC(=O)CNC(=O)[C@H](CO)NC(=O)CNC(=O)[C@H](CCCNC(=N)N)NC(=O)[C@H](CC(C)C)NC(=O)[C@@H](NC(=O)[C@H](CCC(N)=O)NC(=O)[C@H](CC(=O)O)NC(=O)[C@H](CO)NC(=O)[C@H](CO)NC(=O)[C@H](CCC(=O)O)NC(=O)[C@H](CC(C)C)NC(=O)[C@H](CC(C)C)NC(=O)[C@H](CCC(=O)O)NC(=O)[C@H](CCCCN)NC(=O)[C@H](C)NC(=O)[C@H](CC(=O)O)NC(=O)[C@H](CCC(=O)O)NC(=O)[C@H](CC(C)C)NC(=O)[C@H](CCCCN)NC(=O)[C@H](C)NC(=O)[C@@H](NC(=O)[C@H](C)NC(=O)[C@H](CC(N)=O)NC(=O)CNC(=O)[C@H](CC(C)C)NC(=O)[C@H](CC(N)=O)NC(=O)[C@@H](NC(=O)CNC(=O)[C@@H](NC(=O)[C@H](CC(=O)O)NC(=O)[C@H](CC(C)C)NC(=O)[C@H](CCCNC(=N)N)NC(=O)[C@H](CCC(=O)O)NC(=O)[C@H](CC(C)C)NC(=O)[C@H](CO)NC(=O)[C@@H](NC(=O)[C@@H]3CCCN3C(=O)[C@@H]3CCCN3C(C)=O)[C@@H](C)CC)C(C)C)[C@@H](C)O)[C@@H](C)CC)[C@@H](C)CC)C(N)=O)C2=O)CCOC2CCC3(C)C(=CCC4C3CCC3(C)C(C(C)CCCC(C)C)CCC43)C2)C1=O)C(N)=O)[C@@H](C)CC` (some centres unmarked) [MV HRC4] yielded an IC50 (MV-IC323-EGFP) of roughly 55 nM.
Work on “Ac-VALDPIDISIVLNKIKSDLEESKEWIRRSNKILDSI-GSGSG-C(PEG4-Betulinic)-NH2 (SEQ ID NO: 14) [VIKI-PEG4-Betulinic]” yielded an IC50 [2] of 550 nM and an IC90 [2] greater than 1000 nM.
Work on “Ac-VALDPIDISIVLNKIKSDLEESKEWIRRSNKILDSI-GSGSG-C(PEG4-C20)-NH2 (SEQ ID NO: 12) [VIKI-PEG4-C20]” yielded an IC50 [2] of 75 nM and an IC90 [2] of 900 nM.
Work on “Ac-VALDPIDISIVLNKIKSDLEESKEWIRRSNKILDSI-GSGSG-C(PEG4-C30)-NH2 (SEQ ID NO: 13) [VIKI-PEG4-C30]” yielded an IC50 [2] of 40 nM and an IC90 [2] of 800 nM.
In the case of “Ac-VALDPIDISIVLNKIKSDLEESKEWIRRSNKILDSI-GSGSG-C(PEG4-Ursolic)-NH2 (SEQ ID NO: 15) [VIKI-PEG4-Ursolic]”, the IC50 [2] is reported as 200 nM and the IC90 [2] is reported as greater than 1000 nM.
Work on “Ac-VALDPIDISIVLNKIKSDLEESKEWIRRSNKILDSI-GSGSG-C(PEG4-palm)-NH2 (SEQ ID NO: 10) [VIKI-PEG4-palm]” yielded an IC50 [2] of 400 nM and an IC90 [2] greater than 1000 nM.
For enfuvirtide, the “distribution in the CNS” value [3] is listed as “negligible distribution in the CNS”.
